The text below walks through data of patent US5952327A, “Phosphonic acid-substituted benzazepinone-n-acetic acid derivatives process for their preparation and pharmaceutical compositions comprising them” (Solvay Pharmaceuticals GmbH, priority 1997, dated 1999).

A short description of series [1]: Determination of the minimum toxic dose (i.v.) in rats. The format is in vivo. To be noted: 215 mg/kg i.v., observed for one week. On the procedure: I.v. maximum doses of 215 mg/kg of the test substances (dissolved in 0.1 N aqueous NaOH solution, whose pH had been adjusted to 7.1) were administered to groups of 10 rats each of 250 g body weight (age 5 to 6 weeks). From the time of administration, the animals were carefully observed for 5 hours for clinically recognizable signs of toxicity. Moreover, they were observed twice daily until one week had passed. After expiry of this week, each individual animal was completely dissected and all organs were examined macroscopically. If death or severe toxic symptoms was observed, increasingly smaller doses were administered to further rats until toxic symptoms no longer occured. The lowest dose which caused death or severe toxic symptoms was determined to be the minimum toxic dose.

The target of series [2] is neutral endopeptidase (NEP) (E.C. 3.4.24.11) (Homo sapiens, UniProt P08473). The experiment in a line: In-vitro NEP inhibitory action (hydrolytic degradation of Met-encephalin). The format is biochemical. Conditions: purified NEP, Met-encephalin substrate, pH 7.4, 37° C.; read-out: IC50 value for NEP inhibition. On the procedure: In this test, the measure of the inhibitory activity of the substances determined was their IC50 value. The IC50 value of a test substance having enzyme-inhibitory activity is that concentration of the test substance at which 50% of the enzymatic activity of the NEP is blocked.
To carry out the test, respective 100 μl samples of various incubation solutions comprising 10 ng of purified NEP (E.C. 3.4.24.11) and different amounts of test substance and 20 μl substrate (Met-encephalin) and 50 mM tris buffer (tris(hydroxymethyl)aminomethane/HCl, pH 7.4) were prepared. […]
The incubation solutions were incubated for 30 minutes at 37° C. in a shaking water bath. […] The stopped incubation solution was then centrifuged at 12,000×g for 3 minutes, and the concentrations of unreacted substrate and of hydrolysis products formed by the enzymatic reaction were determined in the supernatant. For this purpose, samples of the respective supernatants were separated by high-pressure liquid chromatography (HPLC) on hydrophobicized silica gel, and the products of the enzymatic reaction and unreacted substrate were determined photometrically at a wavelength of 205 nm. […]
The IC50 value of the test substances was calculated in a known manner from the concentrations of hydrolysis products and unreacted substrate measured in the different samples.

In series [3] the test system is diuresis/natriuresis in volume-loaded rats. As to the kind of experiment: In-vivo effect on diuresis/natriuresis in volume-loaded rats. On the set-up: species or system male Wistar rats. Conditions: 60 min collection. How it is done: The in-vivo activity was investigated in volume-loaded rats. In this experiment, a high cardiac filling pressure was produced by an infusion of isotonic sodium chloride solution, as a consequence of which ANP release and, as a result, diuresis/natriuresis occurred.
The experiments were carried out using male Wistar rats having a body weight of 200-400 g. Under neuroleptic analgesia (fentanyl; Hypnorm®, manufacturer Janssen), a catheter was tied into the right femoral vein for the background infusion and the volume loading with isotonic sodium chloride solution. After opening the abdomen, a second catheter was inserted in the bladder and the urethra was tied off so that a measurement of urinary volume, natriuresis and kaliuresis was possible.
The abdomen was closed again, and the animals received a continuous infusion of sodium chloride solution (0.5 ml/100 g of body weight) over the total experimental period of 2 hours. After an equilibration period of 30 minutes, urine samples were collected three times in each case over a period of 10 minutes in a preliminary phase before test substance administration. These preliminary values ("predrug" values) were determined in order to check that a continuous urine flow was taking place in the test animals.
The solutions comprising the test substances were then administered intravenously (bolus injection in the femoral vein) or orally (by means of stomach tube) to groups of 10 rats in each case. For both administration forms, one control animal group in each case received only placebo solutions which contained no active compound. 5 minutes after i.v. administration or 120 minutes after oral administration of the substances, the rats were loaded i.v. with an increased volume of sodium chloride solution (2 ml/100 g of body weight in 2 minutes) and the urine was collected over a period of 60 minutes. The amounts of urine produced in this period were determined, and the sodium and potassium contents contained therein were measured. From the amounts of urine produced, the increase in excretion which took place under volume loading is read off compared with the preliminary values.
In the following Table 1, the increases in urine excretion which have taken place under volume loading after administration of the test substances are indicated in % relative to the urine excretion which has taken place under volume loading after administration of placebo. Furthermore, the amounts of sodium and potassium excreted under volume loading after test substance administration are also indicated in % of the amounts of sodium and potassium excreted under volume loading after administration of placebo. The example numbers in Tables 1 and 2 relate to the subsequent synthesis examples.

For series [4], the system named is endothelin-converting enzyme (ECE). As to the kind of experiment: In-vivo ECE inhibitory action: blood pressure increase induced by BIG-ET in rats. More on the design: species or system male CD rats. On the procedure: ET is an endogenous strongly vasoconstrictory active substance. An increase in the ET level leads to a blood pressure increase. On infusion of BIG-ET, a blood pressure increase takes place to the extent at which ET is formed from this by ECE-catalysed cleavage. As a measure of the ECE-inhibitory action of the substances, their inhibitory action on the blood pressure increase induced by infusion of BIG-ET was determined.
The experiments were carried out using male CD® rats from Charles River Wiga having a body weight of 220-280 g. Under ketamine/xylazine anaesthesia, a catheter for substance administration was tied into the left jugular vein and a second for the measurement of the blood pressure was tied into the left carotid artery of the animals. After a recovery time of 30 minutes, the test substance was administered intravenously (i.v.) or intraduodenally (i.d.) to the animals as a solution. After administration of the test substances, the animals each received BIG-ET in a dose of 0.5 nmole/kg intravenously. The period between administration of the test substance and the administration of BIG-ET was 5 minutes in each case on i.v. administration, 15 minutes in each case on i.d. administration of the test substances of Example Nos. 18 and 22, and 30 minutes in each case on i.d. administration of the test substances of Example Nos. 8 and 20. During the next 30 minutes, the systolic and the diastolic blood pressure were recorded every 5 minutes. With untreated animals, the infusion of 0.5 nmol/kg of big endothelin leads reproducibly to a drastic blood pressure increase, which lasts about 30 minutes. The maximum of the blood pressure increase is reached after about 5 minutes.
In the following Table 2, the maximum increase in the blood pressure after BIG-ET administration is indicated for control animals treated with placebo solution and for animals which have been pretreated with the test substance solutions in different doses.

The mark [5] stands for this setting: 30 μmol/kg i.d., 15 min before BIG-ET 0.5 nmole/kg i.v., control 40.
[6] abbreviates: 30 μmol/kg i.d., 15 min before BIG-ET 0.5 nmole/kg i.v., control 61.
Where [7] appears, read: 30 μmol/kg i.d., 30 min before BIG-ET 0.5 nmole/kg i.v., control 40.
Setting [8] is: 30 μmol/kg i.d., 30 min before BIG-ET 0.5 nmole/kg i.v., control 61.

neutral endopeptidase (NEP) (E.C. 3.4.24.11), sequence (P08473 whole entry, species assumed): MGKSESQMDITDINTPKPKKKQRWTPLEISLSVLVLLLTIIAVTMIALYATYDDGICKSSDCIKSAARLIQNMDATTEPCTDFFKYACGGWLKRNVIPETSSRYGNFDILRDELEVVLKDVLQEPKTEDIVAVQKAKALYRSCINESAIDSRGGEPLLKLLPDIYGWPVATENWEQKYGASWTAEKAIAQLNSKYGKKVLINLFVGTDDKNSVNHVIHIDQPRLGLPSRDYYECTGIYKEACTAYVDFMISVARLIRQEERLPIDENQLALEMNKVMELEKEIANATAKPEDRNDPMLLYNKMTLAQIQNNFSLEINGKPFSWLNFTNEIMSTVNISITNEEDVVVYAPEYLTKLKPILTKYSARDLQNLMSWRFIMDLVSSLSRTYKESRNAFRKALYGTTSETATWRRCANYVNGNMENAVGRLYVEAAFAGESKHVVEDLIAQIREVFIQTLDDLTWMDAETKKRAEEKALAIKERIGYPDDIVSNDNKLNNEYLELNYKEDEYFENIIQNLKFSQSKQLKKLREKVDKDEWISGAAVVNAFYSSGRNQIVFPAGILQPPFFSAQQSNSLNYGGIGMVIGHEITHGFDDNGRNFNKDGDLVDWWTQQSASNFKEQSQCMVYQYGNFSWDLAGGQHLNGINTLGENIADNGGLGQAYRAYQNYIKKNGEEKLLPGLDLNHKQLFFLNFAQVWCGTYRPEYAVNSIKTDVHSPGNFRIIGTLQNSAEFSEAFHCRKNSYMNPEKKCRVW

The IC50 is the concentration at which inhibition is half-maximal. As for `O=C(O)CN1C(=O)[C@@H](NC(=O)C2(CP(=O)(O)O)CCCC2)CCc2ccccc21` [Example 2, (3S)-3-(1-Phosphonomethylcyclopentane-1-carbonylamino)-2,3,4,5-tetrahydro-2-oxo-1H-1-benzazepine-1-acetic acid], the “signs of toxicity at maximum dose” value in series [1] was “no significant signs of toxicity”. The IC50 in series [2] came out at 1.7 nM. For the same molecule, the figures for the “Increase in urine excretion under volume loading after administration of test substance in % relative to the urine excretion under volume loading after administration of placebo” value in series [3] (6.0 μmole/kg i.v.) and in series [3] (20.0 μmole/kg i.v.) were 117% and 149%, respectively. For the same molecule, the “K excretion under volume loading: amount excreted after administration of test substance in % of the amount excreted after administration of placebo” value in series [3] (6.0 μmole/kg i.v.) was determined as 116%; in series [3] (20.0 μmole/kg i.v.) it was 182%. In addition, the “Na excretion under volume loading: amount excreted after administration of test substance in % of the amount excreted after administration of placebo” value in series [3] (6.0 μmole/kg i.v.) is recorded as 147%; in series [3] (20.0 μmole/kg i.v.), 246%. Moreover, the “Blood pressure increase after BIG-ET administration, diastolic pressure (maximum)” value was 23 mm Hg in series [4] (1 mg/kg i.v., 5 min before BIG-ET 0.5 nmole/kg i.v., control 32); 14 mm Hg in series [4] (3 mg/kg i.v., 5 min before BIG-ET 0.5 nmole/kg i.v., control 32); 0.4 mm Hg in series [4] (10 mg/kg i.v., 5 min before BIG-ET 0.5 nmole/kg i.v., control 32). Also, the “Blood pressure increase after BIG-ET administration, systolic pressure (maximum)” value is 38 mm Hg in series [4] (1 mg/kg i.v., 5 min before BIG-ET 0.5 nmole/kg i.v., control 65); 27 mm Hg in series [4] (3 mg/kg i.v., 5 min before BIG-ET 0.5 nmole/kg i.v., control 65); -1 mm Hg in series [4] (10 mg/kg i.v., 5 min before BIG-ET 0.5 nmole/kg i.v., control 65).
Consider `CCOP(=O)(O)CC1(C(=O)NC2CCc3ccccc3N(CC(=O)O)C2=O)CCCC1` (stereo not shown) [Example 22], for which, in series [3] (30.0 μmole/kg p.o.), the “Increase in urine excretion under volume loading after administration of test substance in % relative to the urine excretion under volume loading after administration of placebo” value is given as 127%, the “K excretion under volume loading: amount excreted after administration of test substance in % of the amount excreted after administration of placebo” value is reported as 106% and the “Na excretion under volume loading: amount excreted after administration of test substance in % of the amount excreted after administration of placebo” value worked out at 161%. Further, in series [4] (setting [5]), the “Blood pressure increase after BIG-ET administration, diastolic pressure (maximum)” value worked out at 21 mm Hg. Further, the “Blood pressure increase after BIG-ET administration, systolic pressure (maximum)” value in series [4] (setting [6]) was determined as 36 mm Hg.
Take `CCOP(=O)(CC1(C(=O)N[C@H]2CCc3ccccc3N(CC(=O)OC(C)(C)C)C2=O)CCCC1)OCc1ccccc1` (stereo partly drawn) [Example 8, tert-Butyl (3S)-3-(1-benzylethylphosphonomethylcyclopentane-1-carbonylamino)-2,3,4,5-tetrahydro-2-oxo-1H-1-benzazepine-1-acetate]: the “Blood pressure increase after BIG-ET administration, diastolic pressure (maximum)” value in series [4] (setting [7]) is 26 mm Hg. In addition, the “Blood pressure increase after BIG-ET administration, systolic pressure (maximum)” value in series [4] (setting [8]) is 25 mm Hg.
`CCOC(=O)CN1C(=O)[C@@H](NC(=O)C2(CP(=O)(O)O)CCCC2)CCc2ccccc21` [Example 13, Ethyl (3S)-3-(1-phosphonomethylcyclopentane-1-carbonylamino)-2,3,4,5-tetrahydro-2-oxo-1H-1-benzazepine-1-acetate]: in series [3] (30.0 μmole/kg p.o.), the “Increase in urine excretion under volume loading after administration of test substance in % relative to the urine excretion under volume loading after administration of placebo” value is given as 168%, the “K excretion under volume loading: amount excreted after administration of test substance in % of the amount excreted after administration of placebo” value was found to be 87% and the “Na excretion under volume loading: amount excreted after administration of test substance in % of the amount excreted after administration of placebo” value came to 128%.
As to `CC(C)(C)OC(=O)CN1C(=O)[C@@H](NC(=O)C2(CP(=O)(O)O)CCCC2)CCc2ccccc21` [Example 20, tert-Butyl (3S)-3-[1-phosphonomethylcyclopentane-1-carbonylamino)-2,3,4,5-tetrahydro-2-oxo-1H-1-benzazepine-1-acetate], the “Blood pressure increase after BIG-ET administration, diastolic pressure (maximum)” value in series [4] (setting [7]) is 37 mm Hg. Further, the “Blood pressure increase after BIG-ET administration, systolic pressure (maximum)” value in series [4] (setting [8]) was 50 mm Hg.
As to `CCOP(=O)(CC1(C(=O)N[C@H]2CCc3ccccc3N(CC(=O)OC(C)(C)C)C2=O)CCCC1)OCOC(=O)C(C)(C)C` (stereo partly drawn) [Example 18, tert-Butyl (3S)-3-[1-(pivaloyloxymethylethylphosphono-methyl)cyclopentane-1-carbonylamino]-2,3,4,5-tetrahydro-2-oxo-1H-benzazepine-1-acetate], in series [4] (setting [5]), the “Blood pressure increase after BIG-ET administration, diastolic pressure (maximum)” value stood at 17 mm Hg. The “Blood pressure increase after BIG-ET administration, systolic pressure (maximum)” value in series [4] (setting [6]) turned out to be 19 mm Hg.
